Data reported in patent publication US9619875B2, “Contrast reagent leakage correction in dynamic susceptibility contrast magnetic resonance imaging” (OREGON HEALTH & SCIENCE UNIVERSITY, priority 2014, dated 2017).

Assay: DSC MRI with gadoteridol (day 1) and ferumoxytol (day 2) in subjects with Glioblastoma multiforme
Format: in vivo
Description: In this example, 17 subjects with Glioblastoma multiforme (GBM) were prospectively studied on institutional review board approved protocols. Informed written consent was obtained from each subject. Subjects underwent MRI sessions consisting of two consecutive days of MRI scans. On the first day, pre- and post-contrast T1-weighted images and DSC-MRI were acquired using gadoteridol gadolinium (III) chelate (ProHance, Bracco Diagnostic Inc., Princeton, N.J.). On the following day, the same MRI sequences were acquired using ferumoxytol (provided by AMAG Pharmaceuticals, Inc., Cambridge, Mass.). […]
All Gd and Fe DSC data were first motion corrected within each dynamic series and then between the series using FMRIB's Linear Image Registration Tool (FLIRT) within FM RIB Software Library (FSL). […] The Gd CR extravasating rate constant was calculated either with the Equation 1 fitting approach to obtain K2, or the KL constant defined as the slope of the linear portion of the graphed points using Equation 2. In this example, linear regression was performed starting at 40 seconds post CR injection to ensure minimal influence of CR transient period (period (i) shown in FIGS. 2E and 2F described below) on KL quantification. […]

CC(O)CN1CCN(CC(=O)[O-])CCN(CC(=O)[O-])CCN(CC(=O)[O-])CC1.[Gd+3] (centres unmarked) [gadoteridol, gadoteridol gadolinium (III) chelate]
complications during the MR examinations (17 GBM subjects, gadoteridol 0.1 mmol/kg i.v., ferumoxytol 1 mg/kg, 2 mg/kg or 75 mg i.v.): No subject had any complications | pixels with appreciable linearity departure (period iii, intravasation) (Equation 2 linearization, data up to 70 s post CR injection): < 0.1%
